In patent publication US6406900B1, “Flea protease proteins, nucleic acid molecules and uses thereof” (Heska Corporation, priority 1991, dated 2002):

Test system: flea serine proteases
Experiment: in vitro inhibition of flea protease activity
Format: biochemical
Description: In one embodiment, a protease inhibitor that can be used in a composition of the present invention to treat an animal is identified by a method including the following steps: (a) identifying candidate (i.e., putative, possible) inhibitor compounds by testing the efficacy of one or more protease inhibitors (i) in vitro for their ability to inhibit flea protease activity and/or (ii) in a flea feeding assay for their ability to reduce the survival and/or fecundity of fleas by adding the inhibitors to the blood meal of a flea being maintained, for example, in a feeding system, such as that described by Wade et al., 1988, J. Med Entomol. 25, 186-190; and (b) testing the efficacy of the candidate inhibitor compounds in animals infested with fleas. […] Furthermore, candidate inhibitor compounds identified by the flea feeding assays can include not only desired compounds but also compounds that reduce the viability and/or fecundity of fleas due to general toxicity (e.g., affecting the mitochondria of fleas).

Substance: aprotinin
- inhibition of flea serine proteases in the presence of serum proteins (in the presence of serum proteins, such as are found in the blood): does not work well
- inhibition of flea serine proteases (in vitro): can inhibit at least some flea serine proteases in vitro
